From ChEMBL document CHEMBL1138106, “The discovery of a potent and selective lethal factor inhibitor for adjunct therapy of anthrax infection” (Bioorg Med Chem Lett, 2006)
In brackets after ≈: the same amount, converted by molar mass.

What was measured:
Interstitial collagenase = biological target: T1, Interstitial collagenase (Homo sapiens, UniProt P03956); assay: Inhibition of MMP1
T1 sequence (P03956 whole entry): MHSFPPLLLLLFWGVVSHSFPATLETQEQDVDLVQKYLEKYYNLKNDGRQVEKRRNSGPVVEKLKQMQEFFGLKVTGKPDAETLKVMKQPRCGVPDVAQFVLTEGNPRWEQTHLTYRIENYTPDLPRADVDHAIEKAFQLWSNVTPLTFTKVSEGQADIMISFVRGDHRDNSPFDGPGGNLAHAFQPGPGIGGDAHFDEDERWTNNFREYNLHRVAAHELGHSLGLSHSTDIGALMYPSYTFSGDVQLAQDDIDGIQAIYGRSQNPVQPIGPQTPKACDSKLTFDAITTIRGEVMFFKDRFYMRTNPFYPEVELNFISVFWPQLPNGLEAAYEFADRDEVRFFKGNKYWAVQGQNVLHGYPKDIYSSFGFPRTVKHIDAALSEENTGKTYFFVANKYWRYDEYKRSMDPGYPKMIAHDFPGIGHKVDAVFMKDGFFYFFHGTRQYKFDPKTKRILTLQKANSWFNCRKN

Lethal factor [1] = biological target: T2, Lethal factor (Bacillus anthracis, UniProt P15917); assay: Inhibition of LF; conditions: read-out: IC50
T2 sequence (P15917 whole entry): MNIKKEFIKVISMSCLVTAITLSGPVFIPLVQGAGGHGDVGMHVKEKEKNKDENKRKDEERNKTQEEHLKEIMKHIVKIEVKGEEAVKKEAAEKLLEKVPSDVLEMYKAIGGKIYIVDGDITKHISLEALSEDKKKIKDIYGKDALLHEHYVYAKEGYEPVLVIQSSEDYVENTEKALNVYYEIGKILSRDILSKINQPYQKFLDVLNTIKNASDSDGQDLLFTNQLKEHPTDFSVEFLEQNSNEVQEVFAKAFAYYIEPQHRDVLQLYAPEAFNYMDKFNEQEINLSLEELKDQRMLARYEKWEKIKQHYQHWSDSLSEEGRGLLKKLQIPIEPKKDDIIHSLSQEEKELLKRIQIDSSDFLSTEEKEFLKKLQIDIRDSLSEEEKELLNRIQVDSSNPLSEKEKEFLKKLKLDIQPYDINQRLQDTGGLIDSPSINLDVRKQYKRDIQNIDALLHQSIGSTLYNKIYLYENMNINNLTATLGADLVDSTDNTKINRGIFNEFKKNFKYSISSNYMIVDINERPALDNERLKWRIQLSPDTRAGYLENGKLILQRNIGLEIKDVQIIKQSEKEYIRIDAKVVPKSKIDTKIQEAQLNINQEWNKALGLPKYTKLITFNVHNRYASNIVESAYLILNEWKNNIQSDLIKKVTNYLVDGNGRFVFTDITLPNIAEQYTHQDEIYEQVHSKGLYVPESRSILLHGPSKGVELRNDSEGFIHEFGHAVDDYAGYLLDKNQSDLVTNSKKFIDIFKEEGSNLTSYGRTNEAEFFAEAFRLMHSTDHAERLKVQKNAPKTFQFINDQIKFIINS

[2] = Bioavailability in Sprague-Dawley rat at 2 mg/ml, po; type: ADME, organism-based; conditions: in vivo
[3] = biological target: Matrix metalloproteinase-9 (Homo sapiens, UniProt P14780); assay: Inhibition of MMP9
Sequence of Matrix metalloproteinase-9 (P14780 whole entry): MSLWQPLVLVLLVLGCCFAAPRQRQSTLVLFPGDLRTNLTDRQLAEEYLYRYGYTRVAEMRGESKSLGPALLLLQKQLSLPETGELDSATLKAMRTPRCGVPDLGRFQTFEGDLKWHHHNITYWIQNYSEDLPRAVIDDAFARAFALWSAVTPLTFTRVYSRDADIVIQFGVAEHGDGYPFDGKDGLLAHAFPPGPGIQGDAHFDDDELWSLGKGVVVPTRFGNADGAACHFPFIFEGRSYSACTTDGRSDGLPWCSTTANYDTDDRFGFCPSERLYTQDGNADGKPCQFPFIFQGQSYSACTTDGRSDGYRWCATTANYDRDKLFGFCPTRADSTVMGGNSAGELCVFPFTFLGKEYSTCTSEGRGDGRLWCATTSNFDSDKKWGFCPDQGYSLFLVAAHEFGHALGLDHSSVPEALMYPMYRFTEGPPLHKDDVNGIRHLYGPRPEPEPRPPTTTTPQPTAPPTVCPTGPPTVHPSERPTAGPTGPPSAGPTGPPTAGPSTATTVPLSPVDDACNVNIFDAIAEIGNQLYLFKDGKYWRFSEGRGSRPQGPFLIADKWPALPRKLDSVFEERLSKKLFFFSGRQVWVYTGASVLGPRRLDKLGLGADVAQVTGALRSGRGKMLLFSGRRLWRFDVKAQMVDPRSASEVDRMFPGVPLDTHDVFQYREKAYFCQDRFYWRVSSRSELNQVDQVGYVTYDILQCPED

[4] = Clearance in Sprague-Dawley rat at 1 mg/kg, iv; type: ADME, organism-based; parameters: dose 1 mg/kg, route intravenous; conditions: in vivo
Lethal factor [5] = biological target: T2, Lethal factor
[6] = Tmax in BALB/c mice at 10 mg/kg, iv; type: ADME, organism-based; parameters: dose 10 mg/kg, route intravenous; conditions: mouse, in vivo
[7] = Clearance in Guinea pig at 2 mg/kg, iv; type: ADME, organism-based, Cavia porcellus; parameters: dose 2 mg/kg, route intravenous; conditions: in vivo
[8] = Solubility in water; type: physicochemical
Lethal factor [9] = biological target: T2, Lethal factor; remark: listed apart in the source
[10] = biological target: Disintegrin and metalloproteinase domain-containing protein 17 (Homo sapiens, UniProt P78536); assay: Inhibition of TACE
Sequence of Disintegrin and metalloproteinase domain-containing protein 17 (P78536 whole entry, the tested form may be a part): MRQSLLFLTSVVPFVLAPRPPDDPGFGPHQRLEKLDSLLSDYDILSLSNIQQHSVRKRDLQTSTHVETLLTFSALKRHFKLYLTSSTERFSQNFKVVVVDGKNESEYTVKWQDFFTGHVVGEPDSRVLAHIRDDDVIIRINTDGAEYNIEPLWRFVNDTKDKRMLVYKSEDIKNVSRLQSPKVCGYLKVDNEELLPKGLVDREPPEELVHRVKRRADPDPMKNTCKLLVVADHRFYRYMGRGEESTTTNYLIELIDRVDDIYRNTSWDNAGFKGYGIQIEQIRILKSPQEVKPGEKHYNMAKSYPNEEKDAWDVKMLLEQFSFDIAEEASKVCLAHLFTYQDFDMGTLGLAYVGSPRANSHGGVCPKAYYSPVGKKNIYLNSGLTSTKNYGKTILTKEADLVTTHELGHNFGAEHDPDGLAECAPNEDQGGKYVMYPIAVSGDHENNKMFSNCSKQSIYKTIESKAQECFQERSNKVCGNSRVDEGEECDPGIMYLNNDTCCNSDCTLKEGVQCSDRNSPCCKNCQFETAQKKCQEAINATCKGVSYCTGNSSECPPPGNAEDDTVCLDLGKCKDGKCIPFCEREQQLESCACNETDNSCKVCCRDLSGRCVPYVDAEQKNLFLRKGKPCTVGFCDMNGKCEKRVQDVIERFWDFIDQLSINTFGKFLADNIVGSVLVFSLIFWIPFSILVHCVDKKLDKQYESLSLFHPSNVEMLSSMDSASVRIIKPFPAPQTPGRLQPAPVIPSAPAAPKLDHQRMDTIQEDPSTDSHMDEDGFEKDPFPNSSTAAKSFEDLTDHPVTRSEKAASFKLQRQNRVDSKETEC

[11] = Volume of distribution in Beagle dog at 1 mg/kg, iv; type: ADME, organism-based, Canis lupus familiaris; parameters: dose 1 mg/kg, route intravenous; conditions: in vivo, read-out: Vdss
[12] = Volume of distribution in Sprague-Dawley rat at 1 mg/kg, iv; type: ADME, organism-based; parameters: dose 1 mg/kg, route intravenous; conditions: in vivo, read-out: Vdss
[13] = Cmax in Beagle dog at 1 mg/kg, iv; type: ADME, organism-based, Canis lupus familiaris; parameters: dose 1 mg/kg, route intravenous; conditions: in vivo
[14] = Bioavailability in Dutch Belted rabbit […], po; type: ADME, organism-based, Oryctolagus cuniculus; conditions: in vivo
[15] = Tmax in Guinea pig at 2 mg/kg, iv; type: ADME, organism-based, Cavia porcellus; parameters: dose 2 mg/kg, route intravenous; conditions: in vivo
[16] = Cmax in rhesus monkey at 1 mg/kg, iv; type: ADME, organism-based, Macaca mulatta; parameters: dose 1 mg/kg, route intravenous; conditions: in vivo
Neprilysin = Neprilysin (Homo sapiens, UniProt P08473); assay: Inhibition of NEP
Sequence of Neprilysin (P08473 whole entry): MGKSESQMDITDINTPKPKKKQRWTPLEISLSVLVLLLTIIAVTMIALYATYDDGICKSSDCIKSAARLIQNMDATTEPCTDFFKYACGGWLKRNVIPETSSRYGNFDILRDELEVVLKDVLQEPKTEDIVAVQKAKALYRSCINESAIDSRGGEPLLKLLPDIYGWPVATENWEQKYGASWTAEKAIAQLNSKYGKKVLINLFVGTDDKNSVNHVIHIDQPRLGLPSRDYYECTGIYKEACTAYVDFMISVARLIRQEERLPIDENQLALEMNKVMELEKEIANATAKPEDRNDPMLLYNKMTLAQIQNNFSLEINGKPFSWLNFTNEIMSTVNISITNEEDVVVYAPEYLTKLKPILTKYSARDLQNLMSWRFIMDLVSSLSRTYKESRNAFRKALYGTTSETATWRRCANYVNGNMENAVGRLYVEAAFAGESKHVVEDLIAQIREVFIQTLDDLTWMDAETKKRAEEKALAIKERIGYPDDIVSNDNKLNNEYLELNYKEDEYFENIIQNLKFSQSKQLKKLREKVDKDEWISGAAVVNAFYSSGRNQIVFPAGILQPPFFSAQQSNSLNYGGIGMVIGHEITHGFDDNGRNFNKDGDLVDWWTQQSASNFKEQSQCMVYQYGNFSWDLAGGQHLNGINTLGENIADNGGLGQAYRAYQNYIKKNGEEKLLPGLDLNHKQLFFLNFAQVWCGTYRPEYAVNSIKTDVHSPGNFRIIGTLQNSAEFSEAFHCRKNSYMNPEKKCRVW

[17] = Cmax in Guinea pig at 2 mg/kg, iv; type: ADME, organism-based, Cavia porcellus; parameters: dose 2 mg/kg, route intravenous; conditions: in vivo
[18] = Bioavailability in rhesus monkey […], po; type: ADME, organism-based, Macaca mulatta; conditions: in vivo
[19] = Cmax in BALB/c mice at 10 mg/kg, iv; type: ADME, organism-based; parameters: dose 10 mg/kg, route intravenous; conditions: mouse, in vivo
[20] = Tmax in Dutch Belted rabbit at 2 mg/kg, iv; type: ADME, organism-based, Oryctolagus cuniculus; parameters: dose 2 mg/kg, route intravenous; conditions: in vivo
[21] = Half life in Sprague-Dawley rat at 1 mg/kg, iv; type: ADME, organism-based; parameters: dose 1 mg/kg, route intravenous; conditions: in vivo
[22] = Volume of distribution in Guinea pig at 2 mg/kg, iv; type: ADME, organism-based, Cavia porcellus; parameters: dose 2 mg/kg, route intravenous; conditions: in vivo, read-out: Vdss
[23] = Cmax in Dutch Belted rabbit at 2 mg/kg, iv; type: ADME, organism-based, Oryctolagus cuniculus; parameters: dose 2 mg/kg, route intravenous; conditions: in vivo
[24] = Clearance in Beagle dog at 1 mg/kg, iv; type: ADME, organism-based, Canis lupus familiaris; parameters: dose 1 mg/kg, route intravenous; conditions: in vivo
[25] = Bioavailability in Beagle dog […], po; type: ADME, organism-based, Canis lupus familiaris; conditions: in vivo
[26] = Clearance in Dutch Belted rabbit at 2 mg/kg, iv; type: ADME, organism-based, Oryctolagus cuniculus; parameters: dose 2 mg/kg, route intravenous; conditions: in vivo
[27] = biological target: 72 kDa type IV collagenase (Homo sapiens, UniProt P08253); assay: Inhibition of MMP2
Sequence of 72 kDa type IV collagenase (P08253 whole entry): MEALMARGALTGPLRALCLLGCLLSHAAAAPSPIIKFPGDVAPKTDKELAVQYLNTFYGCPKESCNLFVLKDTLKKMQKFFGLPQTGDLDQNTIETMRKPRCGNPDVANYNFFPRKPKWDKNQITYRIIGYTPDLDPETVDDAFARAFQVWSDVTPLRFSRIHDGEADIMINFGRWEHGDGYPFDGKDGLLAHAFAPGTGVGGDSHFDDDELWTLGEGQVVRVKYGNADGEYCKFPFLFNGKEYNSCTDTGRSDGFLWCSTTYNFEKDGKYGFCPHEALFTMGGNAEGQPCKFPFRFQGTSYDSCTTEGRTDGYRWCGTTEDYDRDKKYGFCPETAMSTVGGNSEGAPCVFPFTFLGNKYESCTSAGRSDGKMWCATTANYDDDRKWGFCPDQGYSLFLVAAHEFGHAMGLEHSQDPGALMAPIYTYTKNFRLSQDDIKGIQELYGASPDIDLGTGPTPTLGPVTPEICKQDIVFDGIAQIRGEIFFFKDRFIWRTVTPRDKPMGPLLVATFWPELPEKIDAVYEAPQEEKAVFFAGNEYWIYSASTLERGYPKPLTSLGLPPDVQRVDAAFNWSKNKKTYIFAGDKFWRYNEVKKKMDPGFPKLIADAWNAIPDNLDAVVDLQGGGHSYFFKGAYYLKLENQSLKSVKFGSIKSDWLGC

[28] = Tmax in Sprague-Dawley rat at 1 mg/kg, iv; type: ADME, organism-based; parameters: dose 1 mg/kg, route intravenous; conditions: in vivo
[29] = Volume of distribution in Dutch Belted rabbit at 2 mg/kg, iv; type: ADME, organism-based, Oryctolagus cuniculus; parameters: dose 2 mg/kg, route intravenous; conditions: in vivo, read-out: Vdss
[30] = Volume of distribution in New Zealand White rabbit at 5 mg/kg, iv; type: ADME, organism-based, Oryctolagus cuniculus; parameters: dose 5 mg/kg, route intravenous; conditions: in vivo, read-out: Vdss
[31] = Volume of distribution in BALB/c mice at 10 mg/kg, iv; type: ADME, organism-based; parameters: dose 10 mg/kg, route intravenous; conditions: mouse, in vivo, read-out: Vdss
[32] = Tmax in rhesus monkey at 1 mg/kg, iv; type: ADME, organism-based, Macaca mulatta; parameters: dose 1 mg/kg, route intravenous; conditions: in vivo
[33] = Clearance in New Zealand White rabbit at 5 mg/kg, iv; type: ADME, organism-based, Oryctolagus cuniculus; parameters: dose 5 mg/kg, route intravenous; conditions: in vivo
[34] = Bioavailability in Sprague-Dawley rat […], po; type: ADME, organism-based; conditions: in vivo
[35] = Half life in Guinea pig at 2 mg/kg, iv; type: ADME, organism-based, Cavia porcellus; parameters: dose 2 mg/kg, route intravenous; conditions: in vivo
[36] = Volume of distribution in rhesus monkey at 1 mg/kg, iv; type: ADME, organism-based, Macaca mulatta; parameters: dose 1 mg/kg, route intravenous; conditions: in vivo, read-out: Vdss
[37] = Tmax in Beagle dog at 1 mg/kg, iv; type: ADME, organism-based, Canis lupus familiaris; parameters: dose 1 mg/kg, route intravenous; conditions: in vivo
[38] = Cmax in Sprague-Dawley rat at 1 mg/kg, iv; type: ADME, organism-based; parameters: dose 1 mg/kg, route intravenous; conditions: in vivo
[39] = Half life in rhesus monkey at 1 mg/kg, iv; type: ADME, organism-based, Macaca mulatta; parameters: dose 1 mg/kg, route intravenous; conditions: in vivo

## Cc1cc(S(=O)(=O)N[C@@H](C(=O)NO)C2CCOCC2)ccc1F
Interstitial collagenase
  IC50: 2.2 µM
Lethal factor [1]
  IC50: 0.054 µM
[2]
  bioavailability: 71%
[3]
  IC50: 2 µM
[4]
  clearance: 80 mL/min/kg
Lethal factor [5]
  IC50: 0.054 µM
[6]
  Tmax: 18 min
[7]
  clearance: 24 mL/min/kg
[8]
  solubility: 2500 µg/mL (≈ 7.22 mM)
Lethal factor [9]
  IC50: 0.21 µM
[10]
  IC50: 4.3 µM
[11]
  Vd: 2.4 L/kg
[12]
  Vd: 3.9 L/kg
[13]
  Cmax: 730 nM
[14]
  bioavailability: 0.5%
[15]
  Tmax: 48 min
[16]
  Cmax: 120 nM
Neprilysin
  IC50: 9.4 µM
[17]
  Cmax: 250 nM
[18]
  bioavailability: 16%
[19]
  Cmax: 120 nM
[20]
  Tmax: 18 min
[21]
  half-life: 84 min
[22]
  Vd: 1.1 L/kg
[23]
  Cmax: 12 nM
[24]
  clearance: 15 mL/min/kg
[25]
  bioavailability: 57%
[26]
  clearance: 14 mL/min/kg
[27]
  IC50: 2 µM
[28]
  Tmax: 18 min
[29]
  Vd: 1.5 L/kg
[30]
  Vd: 3.8 L/kg
[31]
  Vd: 1 L/kg
[32]
  Tmax: 78 min
[33]
  clearance: 35 mL/min/kg
[34]
  bioavailability: 51%
[35]
  half-life: 72 min
[36]
  Vd: 3.3 L/kg
[37]
  Tmax: 48 min
[38]
  Cmax: 240 nM
[39]
  half-life: 144 min
